In patent US8557848B2, “4,5-ring annulated indole derivatives for treating or preventing of HCV and related viral infections” (Merck Sharp & Dohme Corp., priority 2006, dated 2013):
Where two headings read alike, the source gives them in different places.

What was measured:
[1] = target: T1, HCV NS5B polymerase (NS5BΔCT21, from HCV-Con 1 isolate, genotype 1b) (Hepatitis C virus genotype 1b, UniProt Q9WMX2); assay: HCV NS5B Polymerase Inhibition Assay; assay type: biochemical
T1 construct: A soluble C-terminal 21-amino acid truncated NS5B enzyme form; polyhistidine (C); made in house; host or cells: Escherichia coli
Source text: A chemically synthesized 75-mer version, designated DCoH75, whose sequence matches the 3′-end of D-RNA, and DCoH75ddC, where the 3′-terminal cytidine of DCoH75 is replaced by dideoxycytidine, were used for assaying the NS5B enzyme activity as described in Ferrari et al., 12th International Symposium on HCV and Related Viruses, P-306 (2005). The sequence of the template RNA was: 5′-UGUGCCGGUCUUUCUGAACGGGAUAUAAACCUGGCCAGCUUCAUCGAACAAGUUGCCGUGUCUAUGACAUAGAUC-3′. A soluble C-terminal 21-amino acid truncated NS5B enzyme form (NS5BΔCT21, from HCV-Con 1 isolate, genotype 1b, Genbank accession number AJ238799) was produced and purified from Escherichia coli as C-terminal polyhistidine-tagged fusion protein as described in Ferrari et al., J. Virol. 73:1649-1654 (1999). A typical assay contained 20 mM Hepes pH 7.3, 10 mM MgCl2, 60 mM NaCl, 100 μg/ml BSA, 20 units/ml RNasin, 7.5 mM DTT, 0.1 μM ATP/GTP/UTP, 0.026 μM CTP, 0.25 mM GAU, 0.03 μM RNA template, 20 μCi/ml [^33P]-CTP, 2% DMSO, and 30 or 150 nM NS5B enzyme. Reactions were incubated at 22° C. for 2 hours, then stopped by adding 150 mM EDTA, washed in DE81 filter plate in 0.5M di-basic sodium phosphate buffer, pH 7.0, and counted using Packard TopCount after the addition of scintillation cocktail. Polynucleotide synthesis was monitored by the incorporation of radiolabeled CTP. The effect of the Compounds of Formula (I) on the polymerase activity was evaluated by adding various concentrations of a Compound of Formula (I), typically in 10 serial 2-fold dilutions, to the assay mixture. The starting concentrations ranged from 200 μM to 1 μM. An IC50 value for the inhibitor, defined as the compound concentration that provides 50% inhibition of polymerase activity, was determined by fitting the cpm data to the Hill equation Y=100/(1+10^((LogIC50-X)*HillSlope)), where X is the logarithm of compound concentration, and Y is the % inhibition. Ferrari et al., 12th International Symposium on HCV and Related Viruses, P-306 (2005) described in detail this assay procedure. It should be noted that such an assay as described is exemplary and not intended to limit the scope of the invention. The skilled practitioner can appreciate that modifications including but not limited to RNA template, primer, nucleotides, NS5B polymerase form, buffer composition, can be made to develop similar assays that yield the same result for the efficacy of the compounds and compositions described in the invention.
NS5B polymerase inhibition data for selected Compounds of Formula (I) is provided below in Table 2, wherein the compound numbers correspond to the compound numbering set forth in the above specification.

[2] = test system: HCV replicon cells (replicon RNA level); assay: Cell-Based HCV Replicon Assay; settings: Hepatitis C virus, 72 h
Protocol: To measure cell-based anti-HCV activity of the a Compound of Formula (I), replicon cells were seeded at 5000 cells/well in 96-well collagen I-coated Nunc plates in the presence of the Compound of Formula (I). Various concentrations of a Compound of Formula (I), typically in 10 serial 2-fold dilutions, were added to the assay mixture, with the starting concentration ranging from 250 μM to 1 μM. The final concentration of DMSO was 0.5%, fetal bovine serum was 5%, in the assay media. Cells were harvested on day 3 by the addition of 1× cell lysis buffer (Ambion cat #8721). The replicon RNA level was measured using real time PCR (Taqman assay). The amplicon was located in 5B. The PCR primers were: 5B.2F, ATGGACAGGCGCCCTGA; 5B.2R, […]; the probe sequence was FAM-labeled CACGCCATGCGCTGCGG. GAPDH RNA was used as endogenous control and was amplified in the same reaction as NS5B (multiplex PCR) using primers and VIC-labeled probe recommended by the manufacturer (PE Applied Biosystem). The real-time RT-PCR reactions were run on ABI PRISM 7900HT Sequence Detection System using the following program: 48° C. for 30 min, 95° C. for 10 min, 40 cycles of 95° C. for 15 sec, 60° C. for 1 min. The ΔCT values (CT5B-CTGAPDH) were plotted against the concentration of test compound and fitted to the sigmoid dose-response model using XLfit4 (MDL). EC50 was defined as the concentration of inhibitor necessary to achieve ΔCT=1 over the projected baseline; EC90 the concentration necessary to achieve ΔCT=3.2 over the baseline. Alternatively, to quantitate the absolute amount of replicon RNA, a standard curve was established by including serially diluted T7 transcripts of replicon RNA in the Taqman assay. All Taqman reagents were from PE Applied Biosystems. Such an assay procedure was described in detail in e.g. Malcolm et al., Antimicrobial Agents and Chemotherapy 50: 1013-1020 (2006).
HCV Replicon assay data for selected Compounds of Formula (I) is provided below in Table 1, wherein the compound numbers correspond to the compound numbering set forth in the above specification.

[3] = NS5B polymerase inhibition, [33P]-CTP incorporation, 22° C. for 2 hours, read-out: IC50
[4] = replicon RNA level by real time PCR (Taqman), cells harvested on day 3, read-out: EC50

## CCc1coc2c1ccc1c2c(-c2ccc[nH]c2=O)c(C(=O)NS(C)(=O)=O)n1Cc1cc(F)ccc1F [Compound 69]
[1]; [3]
  IC50: > 100 nM
[2]; [4]
  EC50: < 500 nM

## CCc1coc2c1ccc1c2c(-c2ccc[nH]c2=O)c(C(=O)NS(C)(=O)=O)n1Cc1ccccc1F [Compound 70]
[1]; [3]
  IC50: > 100 nM
[2]; [4]
  EC50: > 1500 nM

## Cc1cc2ccc3c(c(-c4ccc[nH]c4=O)c(C(=O)O)n3Cc3ccccc3F)c2o1 [Compound 76]
[1]; [3]
  IC50: 25 to 100 nM
[2]; [4]
  EC50: > 1500 nM

## Nc1cc(Cn2c(C(=O)O)c(-c3ccc[nH]c3=O)c3c4occc4c(F)cc32)ccn1 [Compound 77]
[1]; [3]
  IC50: < 25 nM
[2]; [4]
  EC50: < 500 nM

## O=C(O)c1c(-c2ccc[nH]c2=O)c2c3occc3c(F)cc2n1Cc1cc[nH]c(=O)c1 [Compound 78]
[1]; [3]
  IC50: 25 to 100 nM
[2]; [4]
  EC50: < 500 nM

## O=C(O)c1c(-c2ccc[nH]c2=O)c2c3occc3c(F)cc2n1Cc1ccccc1F [Compound 79]
[1]; [3]
  IC50: < 25 nM
[2]; [4]
  EC50: < 500 nM

## Nc1n[nH]c2cc(F)c(Cn3c(C(=O)O)c(-c4ccc[nH]c4=O)c4c5occc5c(F)cc43)cc12 [Compound 80]
[1]
  IC50: < 25 nM
[2]; [4]
  EC50: < 500 nM

## NCc1cccc(Cn2c(C(=O)O)c(-c3ccc[nH]c3=O)c3c4occc4c(F)cc32)c1 [Compound 81]
[1]; [3]
  IC50: < 25 nM
[2]; [4]
  EC50: < 500 nM

## NCc1ccc(Cn2c(C(=O)O)c(-c3ccc[nH]c3=O)c3c4occc4c(F)cc32)cc1 [Compound 82]
[1]; [3]
  IC50: < 25 nM
[2]; [4]
  EC50: < 500 nM

## Cc1c[nH]c(=O)cc1Cn1c(C(=O)O)c(-c2ccc[nH]c2=O)c2c3occc3c(F)cc21 [Compound 83]
[1]; [3]
  IC50: < 25 nM
[2]; [4]
  EC50: < 500 nM

## Cc1cc2ccc3c(c(-c4ccc[nH]c4=O)c(C(=O)O)n3Cc3cc(F)ccc3F)c2o1 [Compound 85]
[1]; [3]
  IC50: < 25 nM
[2]; [4]
  EC50: > 1500 nM

## O=C(O)c1c(-c2ccc[nH]c2=O)c2c3occc3c(F)cc2n1Cc1cc(=O)[nH]cc1F [Compound 87]
[1]; [3]
  IC50: < 25 nM
[2]
  EC50: < 500 nM

## O=C(O)c1c(-c2cccc(O)c2F)c2c3occc3c(F)cc2n1Cc1ccccc1F [Compound 88]
[1]; [3]
  IC50: 25 to 100 nM
[2]; [4]
  EC50: 500 to 1500 nM

## O=C(O)c1c(-c2ccc[nH]c2=O)c2c3occc3c(F)cc2n1Cc1cc(F)ccc1F [Compound 89]
[1]; [3]
  IC50: < 25 nM
[2]; [4]
  EC50: < 500 nM

## O=C(O)c1c(-c2ccc[nH]c2=O)c2c3occc3c(F)cc2n1Cc1ccc2nc[nH]c2c1 [Compound 91]
[1]; [3]
  IC50: < 25 nM
[2]; [4]
  EC50: < 500 nM

## NC(=O)c1cccc(Cn2c(C(=O)O)c(-c3ccc[nH]c3=O)c3c4occc4c(F)cc32)c1 [Compound 92]
[1]; [3]
  IC50: < 25 nM
[2]; [4]
  EC50: < 500 nM

## NC(=O)c1ccc(Cn2c(C(=O)O)c(-c3ccc[nH]c3=O)c3c4occc4c(F)cc32)cc1 [Compound 93]
[1]; [3]
  IC50: < 25 nM
[2]; [4]
  EC50: < 500 nM

## NC(=O)c1ccc(F)c(Cn2c(C(=O)O)c(-c3ccc[nH]c3=O)c3c4occc4ccc32)c1 [Compound 94]
[1]; [3]
  IC50: < 25 nM
[2]; [4]
  EC50: < 500 nM

## NCc1ccc(Cn2c(C(=O)O)c(-c3ccc[nH]c3=O)c3c4occc4c(F)cc32)c(F)c1 [Compound 95]
[1]; [3]
  IC50: < 25 nM
[2]; [4]
  EC50: < 500 nM

## Cn1cc(F)c(Cn2c(C(=O)O)c(-c3ccc[nH]c3=O)c3c4occc4c(F)cc32)cc1=O [Compound 96]
[1]; [3]
  IC50: < 25 nM
[2]; [4]
  EC50: < 500 nM

## NC(=O)c1cc(Cn2c(C(=O)O)c(-c3ccc[nH]c3=O)c3c4occc4c(F)cc32)cs1 [Compound 97]
[1]; [3]
  IC50: < 25 nM
[2]; [4]
  EC50: < 500 nM

## NC(=O)c1ncc(Cn2c(C(=O)O)c(-c3ccc[nH]c3=O)c3c4occc4c(F)cc32)s1 [Compound 98]
[1]; [3]
  IC50: 25 to 100 nM
[2]; [4]
  EC50: 500 to 1500 nM

## NC(=O)c1cc(Cn2c(C(=O)O)c(-c3ccc[nH]c3=O)c3c4c(c(F)cc32)CCO4)cs1 [Compound 99]
[1]; [3]
  IC50: < 25 nM
[2]; [4]
  EC50: 500 to 1500 nM

## Nc1n[nH]c2ccc(Cn3c(C(=O)O)c(-c4ccc[nH]c4=O)c4c5occc5c(F)cc43)cc12 [Compound 100]
[1]; [3]
  IC50: < 25 nM
[2]; [4]
  EC50: < 500 nM

## Nc1nc2cc(Cn3c(C(=O)O)c(-c4ccc[nH]c4=O)c4c5occc5c(F)cc43)ccc2[nH]1 [Compound 101]
[1]; [3]
  IC50: < 25 nM
[2]; [4]
  EC50: < 500 nM

## Nc1noc2ccc(Cn3c(C(=O)O)c(-c4ccc[nH]c4=O)c4c5occc5c(F)cc43)cc12 [Compound 102]
[1]; [3]
  IC50: < 25 nM
[2]; [4]
  EC50: < 500 nM

## O=C(O)c1c(-c2ccc[nH]c2=O)c2c3occc3c(F)cc2n1Cc1ccc2[nH]c(=O)[nH]c2c1 [Compound 103]
[1]; [3]
  IC50: < 25 nM
[2]; [4]
  EC50: < 500 nM

## COc1ccc([N+](=O)[O-])cc1Cn1c(C(=O)O)c(-c2ccc[nH]c2=O)c2c3occc3ccc21 [Compound 104]
[1]; [3]
  IC50: < 25 nM
[2]; [4]
  EC50: > 1500 nM

## O=C(O)c1c(-c2ccc[nH]c2=O)c2c3occc3c(F)cc2n1Cc1cc2nc[nH]c2cc1F [Compound 105]
[1]; [3]
  IC50: < 25 nM
[2]; [4]
  EC50: < 500 nM

## NC(=O)c1ccc(F)c(Cn2c(C(=O)O)c(-c3ccc[nH]c3=O)c3c4occc4c(F)cc32)c1 [Compound 107]
[1]; [3]
  IC50: < 25 nM
[2]; [4]
  EC50: < 500 nM

## O=C(O)c1ccc(F)c(Cn2c(C(=O)O)c(-c3ccc[nH]c3=O)c3c4occc4c(F)cc32)c1 [Compound 108]
[1]; [3]
  IC50: < 25 nM
[2]; [4]
  EC50: 500 to 1500 nM

## NC(=O)c1cnc(F)c(Cn2c(C(=O)O)c(-c3ccc[nH]c3=O)c3c4occc4c(F)cc32)c1 [Compound 109]
[1]; [3]
  IC50: < 25 nM
[2]; [4]
  EC50: < 500 nM

## O=C(O)c1c(-c2ccc[nH]c2=O)c2c3occc3c(F)cc2n1Cc1cc([N+](=O)[O-])ccc1F [Compound 111]
[1]; [3]
  IC50: < 25 nM
[2]; [4]
  EC50: < 500 nM

## NC(=O)c1cnc(F)c(Cn2c(C(=O)O)c(-c3ccc[nH]c3=O)c3c4c(c(F)cc32)CCO4)c1 [Compound 113]
[1]; [3]
  IC50: < 25 nM
[2]; [4]
  EC50: < 500 nM

## O=C(O)c1c(-c2ccc[nH]c2=O)c2c3occc3c(F)cc2n1Cc1cc(=O)[nH]c2ccccc12 [Compound 114]
[1]
  IC50: < 25 nM
[2]; [4]
  EC50: < 500 nM

## O=C(O)c1c(-c2ccc[nH]c2=O)c2c3occc3c(F)cc2n1Cc1cc2ccccc2[nH]c1=O [Compound 115]
[1]; [3]
  IC50: < 25 nM
[2]; [4]
  EC50: < 500 nM

## O=C(O)c1c(-c2ccc[nH]c2=O)c2c3occc3ccc2n1Cc1cc2ccccc2nc1Cl [Compound 116]
[1]; [3]
  IC50: < 25 nM
[2]; [4]
  EC50: < 500 nM

## O=C(O)c1c(-c2ccc[nH]c2=O)c2c3occc3c(F)cc2n1Cc1nc2ccccc2[nH]c1=O [Compound 117]
[1]; [3]
  IC50: < 25 nM
[2]; [4]
  EC50: < 500 nM

## O=C(O)c1c(-c2ccc[nH]c2=O)c2c3occ(Cl)c3c(F)cc2n1Cc1cc(F)ccc1F [Compound 119]
[1]; [3]
  IC50: < 25 nM
[2]; [4]
  EC50: < 500 nM
